Results taken from patent US20040191115A1 (priority 2003, published 2004).
Where “and” joins values, the source holds several entries; their conditions need not be identical. Equal entries are not always repeated. Where two headings read alike, the source gives them in different places.

Legend:
[1] = tested on: bacillus atrophaeus spores; conditions: normal machine operation, cartons running
Protocol: (§1) Studies were conducted to determine the microbial eradication on mandrels 34 that were subjected to vaporized sterilant introduced at the heaters 40. […] The efficacy of the mandrel sterilization was studied for both the mandrel caps 35 and the mandrel side tubes 37 (see FIG. 3).
(§2) Each of the studies was further carried out using a testing media of bacillus atrophaeus spores for inoculating the mandrels. The mandrels were inoculated by spraying, using an aerating spray bottle having a solution with a concentration of about 7 log bacillus spores. The mandrels were then allowed to air dry. Controls were swabbed using cotton swabs to assure that the mandrels were properly inoculated. Following the machine operating period of the test, the mandrels were swabbed and the bacillus spores transferred to an agar media for incubation of the spores (at 32° C. for 48 hours) and subsequent recovery.

[2] = tested on: bacillus atrophaeus spores; conditions: 2.59 percent H2O2, time 0 min, slow speed, without cartons; for average count of colony forming units for the time period / log of average count for the time period: mean of samples
Protocol: as §1, §2
The data was collected by taking swab samples at the mandrel cap 35 (represented by C in the Table) and on the mandrel side tubes 37 (represented by T in the Table).

[3] = 16.76 percent H2O2, time 10 min
[4] = 16.76 percent H2O2, time 15 min
[5] = 16.76 percent H2O2, time 20 min
[6] = 16.76 percent H2O2, time 30 min

OO [hydrogen peroxide]
Microbial Load (CFU/mandrel) ([1]; 3.12 percent H2O2, time 0 min): 848000 CFU/mandrel
Microbial Reduction (Log/mandrel) ([1]; 3.12 percent H2O2, time 0 min): 0.00 Log/mandrel
Microbial Load (CFU/mandrel) ([1]; 3.12 percent H2O2, time 10 min): 187000 CFU/mandrel
Microbial Reduction (Log/mandrel) ([1]; 3.12 percent H2O2, time 10 min): 0.66 Log/mandrel
Microbial Load (CFU/mandrel) ([1]; 3.12 percent H2O2, time 20 min): 33400 CFU/mandrel
Microbial Reduction (Log/mandrel) ([1]; 3.12 percent H2O2, time 20 min): 1.40 Log/mandrel
Microbial Load (CFU/mandrel) ([1]; 3.12 percent H2O2, time 30 min): 14100 CFU/mandrel
Microbial Reduction (Log/mandrel) ([1]; 3.12 percent H2O2, time 30 min): 1.78 Log/mandrel
Microbial Load (CFU/mandrel) ([1]; 3.12 percent H2O2, time 40 min): 2180 CFU/mandrel
Microbial Reduction (Log/mandrel) ([1]; 3.12 percent H2O2, time 40 min): 2.59 Log/mandrel
Microbial Load (CFU/mandrel) ([1]; 5.77 percent H2O2, time 0 min): 566000 CFU/mandrel
Microbial Reduction (Log/mandrel) ([1]; 5.77 percent H2O2, time 0 min): 0.00 Log/mandrel
Microbial Load (CFU/mandrel) ([1]; 5.77 percent H2O2, time 10 min): 107000 CFU/mandrel
Microbial Reduction (Log/mandrel) ([1]; 5.77 percent H2O2, time 10 min): 0.72 Log/mandrel
Microbial Load (CFU/mandrel) ([1]; 5.77 percent H2O2, time 20 min): 7300 CFU/mandrel
Microbial Reduction (Log/mandrel) ([1]; 5.77 percent H2O2, time 20 min): 1.89 Log/mandrel
Microbial Load (CFU/mandrel) ([1]; 5.77 percent H2O2, time 30 min): 42 CFU/mandrel
Microbial Reduction (Log/mandrel) ([1]; 5.77 percent H2O2, time 30 min): 4.13 Log/mandrel
Microbial Load (CFU/mandrel) ([1]; 5.77 percent H2O2, time 40 min): 4 CFU/mandrel
Microbial Reduction (Log/mandrel) ([1]; 5.77 percent H2O2, time 40 min): 5.15 Log/mandrel
Microbial Load (CFU/mandrel) ([1]; 9.55 percent H2O2, time 0 min): 483000 CFU/mandrel
Microbial Reduction (Log/mandrel) ([1]; 9.55 percent H2O2, time 0 min): 0.00 Log/mandrel
Microbial Load (CFU/mandrel) ([1]; 9.55 percent H2O2, time 5 min): 71000 CFU/mandrel
Microbial Reduction (Log/mandrel) ([1]; 9.55 percent H2O2, time 5 min): 0.83 Log/mandrel
Microbial Load (CFU/mandrel) ([1]; 9.55 percent H2O2, time 10 min): 5750 CFU/mandrel
Microbial Reduction (Log/mandrel) ([1]; 9.55 percent H2O2, time 10 min): 1.92 Log/mandrel
Microbial Load (CFU/mandrel) ([1]; 9.55 percent H2O2, time 20 min): 106 CFU/mandrel
Microbial Reduction (Log/mandrel) ([1]; 9.55 percent H2O2, time 20 min): 3.66 Log/mandrel
Microbial Load (CFU/mandrel) ([1]; 9.55 percent H2O2, time 30 min): 8 CFU/mandrel
Microbial Reduction (Log/mandrel) ([1]; 9.55 percent H2O2, time 30 min): 4.78 Log/mandrel
Microbial Load (CFU/mandrel) ([1]; 16.76 percent H2O2, time 0 min): 1020667 CFU/mandrel
Microbial Reduction (Log/mandrel) ([1]; 16.76 percent H2O2, time 0 min): 0.00 Log/mandrel
Microbial Load (CFU/mandrel) ([1]; 16.76 percent H2O2, time 5 min): 52967 CFU/mandrel
Microbial Reduction (Log/mandrel) ([1]; 16.76 percent H2O2, time 5 min): 1.22 Log/mandrel
Microbial Load (CFU/mandrel) [1, 3]: 1273 CFU/mandrel
Microbial Reduction (Log/mandrel) [1, 3]: 2.81 Log/mandrel
Microbial Load (CFU/mandrel) [1, 4]: 30 CFU/mandrel
Microbial Reduction (Log/mandrel) [1, 4]: 4.53 Log/mandrel
Microbial Load (CFU/mandrel) [1, 5]: 8 CFU/mandrel
Microbial Reduction (Log/mandrel) [1, 5]: 5.20 Log/mandrel
Microbial Load (CFU/mandrel) [1, 6]: 4 CFU/mandrel
Microbial Reduction (Log/mandrel) [1, 6]: 5.21 Log/mandrel
Microbial Load (CFU/mandrel) ([1]; 35 percent H2O2, time 0 min): 799000 CFU/mandrel
Microbial Reduction (Log/mandrel) ([1]; 35 percent H2O2, time 0 min): 0.00 Log/mandrel
Microbial Load (CFU/mandrel) ([1]; 35 percent H2O2, time 5 min): 959 CFU/mandrel
Microbial Reduction (Log/mandrel) ([1]; 35 percent H2O2, time 5 min): 2.92 Log/mandrel
Microbial Load (CFU/mandrel) ([1]; 35 percent H2O2, time 10 min): 1 CFU/mandrel
Microbial Load (CFU/mandrel) ([1]; 35 percent H2O2, time 15 min): 1 CFU/mandrel
Microbial Reduction (Log/mandrel) ([1]; 35 percent H2O2, time 15 min): 5.90 Log/mandrel
Microbial Load (CFU/mandrel) ([1]; 35 percent H2O2, time 20 min): 1 CFU/mandrel
Microbial Reduction (Log/mandrel) ([1]; 35 percent H2O2, time 20 min): 5.90 Log/mandrel
average count of colony forming units for the time period ([2]; cap): 4.82E+05 CFU/mandrel
log of average count for the time period ([2]; cap): 5.68 log
average count of colony forming units for the time period ([2]; side tubes): 6.67E+05 CFU/mandrel
log of average count for the time period ([2]; side tubes): 5.82 log
Average CFU/mL ([2]; swab site C (mandrel cap)): 1.19E+05 CFU/mL and 1.23E+05 CFU/mL
Average CFU/mandrel ([2]; swab site C (mandrel cap)): 4.74E+05 CFU/mandrel and 4.90E+05 CFU/mandrel
Log (of Average CFU/mandrel) ([2]; swab site C (mandrel cap)): 5.68 Log and 5.69 Log
